Drawing on patent publication US9499553B2 (CHUGAI SEIYAKU KABUSHIKI KAISHA, priority 2013, dated 2016), this text covers IC50 for 34 molecules.

The IC50 is the concentration that inhibits the measured activity by half.

In one assay the target is T1, human NaPi-IIb (Homo sapiens, UniProt O95436).
T1 construct: expressed in transfected cells
T1 sequence (O95436 1-690): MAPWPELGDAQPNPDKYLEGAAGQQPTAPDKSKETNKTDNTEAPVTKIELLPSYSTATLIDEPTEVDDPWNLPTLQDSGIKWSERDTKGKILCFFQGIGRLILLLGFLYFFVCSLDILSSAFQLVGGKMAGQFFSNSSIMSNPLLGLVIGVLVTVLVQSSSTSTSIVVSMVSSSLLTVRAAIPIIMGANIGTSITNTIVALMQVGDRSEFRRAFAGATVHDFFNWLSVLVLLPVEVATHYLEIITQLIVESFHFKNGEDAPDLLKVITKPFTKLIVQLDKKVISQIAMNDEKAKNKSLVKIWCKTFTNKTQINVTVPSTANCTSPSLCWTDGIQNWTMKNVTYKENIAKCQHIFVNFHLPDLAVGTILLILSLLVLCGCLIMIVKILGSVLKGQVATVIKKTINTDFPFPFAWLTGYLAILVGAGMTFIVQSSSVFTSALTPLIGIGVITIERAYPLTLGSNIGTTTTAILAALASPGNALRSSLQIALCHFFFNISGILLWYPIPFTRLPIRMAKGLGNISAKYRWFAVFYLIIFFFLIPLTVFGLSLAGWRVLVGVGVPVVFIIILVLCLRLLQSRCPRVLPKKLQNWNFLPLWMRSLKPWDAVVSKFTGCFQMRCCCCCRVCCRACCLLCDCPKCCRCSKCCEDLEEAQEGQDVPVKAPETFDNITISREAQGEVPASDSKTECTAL
Description: Inhibitory effect on 33PO4 uptake into human NaPi-IIb-expressing CHO cells. The format is cell-based. The conditions noted are these: read-out: IC50. As to the method: Test Example 2: Inhibitory Effect on PO4 Uptake into Human NaPi-IIb-Expressing Cell CHO cells were transfected with human NaPi-IIb expression plasmids, and a stably human NaPi-IIb-expressing cell line was obtained using G418. The human NaPi-IIb-expressing cells were inoculated to a 96-well plate and incubated overnight in a CO2 incubator. […] After a given time, a 1/20 volume of buffer A containing ^33PO4 was added thereto and reacted at room temperature. After washing with ice-cold buffer A, a liquid scintillator was added to each reaction mixture, and the amount of ^33PO4 uptake was measured using TopCount.
Consider `CN1N(Cc2ccc(OCCN3CCOCC3)c(F)c2F)C(=O)C(C(=O)Nc2ccc(Cl)cc2-c2ccc(C(F)(F)F)nc2)=C(O)C12CCCC2` [Example 288], for which the concentration for half-maximal inhibition (IC50) came out at 11 µM.

Consider `C[C@]12CCCN1N(Cc1ccc(F)c(F)c1)C(=O)C(C(=O)Nc1cc(F)c(Br)c(F)c1)=C2O` [Example 191], for which the half-maximal inhibitory concentration (IC50) came to 14.5 µM.

Turning to `CN(C)S(=O)(=O)c1ccc(-c2cc(C(F)(F)F)ccc2NC(=O)C2=C(O)[C@@]3(C)CCCN3N(Cc3cccc(F)c3F)C2=O)s1` [Example 71], the IC50 is 7.8 µM.

`C[C@]12CCCN1N(Cc1ccccc1C#N)C(=O)C(C(=O)Nc1ccc(C(F)(F)F)cc1-c1cc(C(F)(F)F)ncn1)=C2O` [Example 178]: the 50% inhibitory concentration (IC50) amounted to 8.2 µM.

Take `C[C@]12CCCN1N(Cc1ccc(F)cc1)C(=O)C(C(=O)Nc1ccc(C(F)(F)F)cc1-c1cc(C(F)(F)F)ncn1)=C2O` [Example 208]: the concentration for half-maximal inhibition (IC50) was 6.6 µM.

For the molecule `CN1[C@@H](C(C)(C)C)C(O)=C(C(=O)Nc2cccc(C(F)(F)F)n2)C(=O)N1Cc1cccc(F)c1F` [Example 244], the half-maximal inhibitory concentration (IC50) worked out at 7.3 µM.

`CC(C)(C)[C@H]1C(O)=C(C(=O)Nc2ccc(Cl)cc2-c2ccc(C(F)(F)F)nc2)C(=O)N(Cc2cccc(F)c2F)N1CC(F)(F)F` [Example 247]: the half-maximal inhibitory concentration (IC50) was found to be 8.2 µM.

Regarding `COC(=O)COc1ccc(CN2C(=O)C(C(=O)Nc3ccc(C(F)(F)F)cc3-c3ccc(C(F)(F)F)nc3)=C(O)[C@@]3(C)CCCN23)c(F)c1F` [Example 150], the half-maximal inhibitory concentration (IC50) is 9 µM.

For the molecule `CCOC(=O)CCCCCCN1C(=O)C(C(=O)Nc2ccc(C(F)(F)F)cc2-c2ccc(C(F)(F)F)nc2)=C(O)[C@@]2(C)CCCN12` [Example 235, Ethyl 7-[(4aR)-4-hydroxy-4a-methyl-2-oxo-3-[[4-(trifluoromethyl)-2-[6-(trifluoromethyl)pyridin-3-yl]phenyl]carbamoyl]-6,7-dihydro-5H-pyrrolo[1,2-b]pyridazin-1-yl]heptanoate], the IC50 came out at 4.8 µM.

In the case of `CN1N(Cc2ccc(OCCN3CCOCC3)c(F)c2F)C(=O)C(C(=O)Nc2ccc(C(F)(F)F)cc2-c2ccc(C(F)(F)F)nc2)=C(O)C12CCCC2` [Example 287], the IC50 is 8 µM.

In the case of `CN1N(Cc2ccc(OCCN3CCOCC3)c(F)c2F)C(=O)C(C(=O)Nc2ccc(C(F)(F)F)cc2-c2cc(C(F)(F)F)ncn2)=C(O)C12CCC2` [Example 317, 6-[[2,3-Difluoro-4-(2-morpholin-4-ylethoxy)phenyl]methyl]-9-hydroxy-5-methyl-7-oxo-N-[4-(trifluoromethyl)-2-[6-(trifluoromethyl)pyrimidin-4-yl]phenyl]-5,6-diazaspiro[3.5] non-8-ene-8-carboxamide], the IC50 came out at 9.6 µM.

With `CN1N(Cc2cccc(F)c2F)C(=O)C(C(=O)Nc2ccc(Br)c(C(F)(F)F)n2)=C(O)C12CCC2` [Example 258], the concentration for half-maximal inhibition (IC50) was 2.7 µM.

Consider `COc1cccc(-c2cc(C(F)(F)F)ccc2NC(=O)C2=C(O)[C@@]3(C)CCCN3N(Cc3cccc(F)c3F)C2=O)n1` [Example 93], for which the IC50 was 17.4 µM.

Regarding `C[C@H]1COC[C@H](C)N1CCOc1ccc(CN2C(=O)C(C(=O)Nc3ccc(C(F)(F)F)cc3-c3cc(C(F)(F)F)ncn3)=C(O)C3(CCC3)N2C)c(F)c1F` [Example 343], the IC50 amounted to 21 µM.

For the molecule `C[C@]12CCCN1N(Cc1ccccc1F)C(=O)C(C(=O)Nc1ccc(C(F)(F)F)cc1-c1cc(C(F)(F)F)ncn1)=C2O` [Example 207], the IC50 is 6.5 µM.

With `CN1N(Cc2cccc(F)c2F)C(=O)C(C(=O)Nc2cc(C(F)(F)F)ccc2-c2ccc(C(F)(F)F)nc2)=C(O)C1(C)C` [Example 307], the IC50 worked out at 4.6 µM.

As for `COc1cccc(-c2cc(C(F)(F)F)ccc2NC(=O)C2=C(O)[C@@]3(C)CCCN3N(Cc3ccc(C#CCCCO)c(F)c3F)C2=O)c1OC` [Example 138], the half-inhibitory concentration (IC50) is 11.9 µM.

For `C[C@]12CCCN1N(Cc1c(F)cc(C#CC3(O)CCCC3)cc1F)C(=O)C(C(=O)Nc1ccc(C(F)(F)F)cc1-c1ccc(C(F)(F)F)nc1)=C2O` [Example 130], the IC50 came to 8.9 µM.

As to `C[C@]12CCCN1N(Cc1cc(F)ccc1F)C(=O)C(C(=O)Nc1ccc(C(F)(F)F)cc1-c1ccc(C(F)(F)F)nc1)=C2O` [Example 172], the IC50 amounted to 2.4 µM.

For the molecule `CSc1ccc(-c2cc(C(F)(F)F)ccc2NC(=O)C2=C(O)[C@@]3(C)CCCN3N(Cc3ccc(OCCN4CCOCC4)c(F)c3F)C2=O)cn1` [Example 103], the half-maximal inhibitory concentration (IC50) came to 11 µM.

On to `C[C@]12CCCN1N(Cc1cccc(F)c1F)C(=O)C(C(=O)Nc1cc(F)c(Br)c(F)c1)=C2O` [Example 29], for which the 50% inhibitory concentration (IC50) worked out at 2 µM.

As to `Cc1c(C#N)ncnc1-c1cc(C(F)(F)F)ccc1NC(=O)C1=C(O)[C@@]2(C)CCCN2N(Cc2cccc(F)c2F)C1=O` [Example 24], the half-maximal inhibitory concentration (IC50) worked out at 8.1 µM.

For `C[C@]12CCCN1N(Cc1ccccc1Cl)C(=O)C(C(=O)Nc1ccc(C(F)(F)F)cc1-c1cc(C(F)(F)F)ncn1)=C2O` [Example 180], the IC50 came to 5.7 µM.

For the molecule `Cc1cccc(CN2C(=O)C(C(=O)Nc3ccc(C(F)(F)F)cc3-c3ccc(C(F)(F)F)nc3)=C(O)[C@@]3(C)CCCN23)c1F` [Example 205], the IC50 was 1.6 µM.

Consider `C[C@]12CCCN1N(Cc1cccc(F)c1F)C(=O)C(C(=O)Nc1ccc(C(F)(F)F)cc1-c1cnc(Br)cn1)=C2O` [Example 73], for which the 50% inhibitory concentration (IC50) was 2.3 µM.

`CN1[C@@H](C(C)(C)C)C(O)=C(C(=O)Nc2ccc(Br)c(C(F)(F)F)n2)C(=O)N1Cc1cccc(F)c1F` [Example 242]: the concentration for half-maximal inhibition (IC50) was 7.8 µM.

The assay is the same for the next values; noted with them: read-out: IC50 against 33PO4 uptake into human NaPi-IIb-expressing cells.
With `CN1N(Cc2ccc(OCCCCCOCCCO)c(F)c2F)C(=O)C(C(=O)Nc2ccc(C(F)(F)F)cc2-c2cc(C(F)(F)F)ncn2)=C(O)C12CCCC2` [Example 400], the IC50 was found to be 9.2 µM.

With `CCN(CCN(C)CCOC)c1ccc(CN2C(=O)C(C(=O)Nc3ccc(C(F)(F)F)cc3-c3cc(C(F)(F)F)ncn3)=C(O)C3(CCCC3)N2C)c(F)c1F` [Example 443], the 50% inhibitory concentration (IC50) was 8.9 µM.

Consider `CN1N(Cc2ccc(OCCCOC[C@H](O)CO)c(F)c2F)C(=O)C(C(=O)Nc2ccc(C(F)(F)F)cc2-c2cc(C(F)(F)F)ncn2)=C(O)C12CCCC2` [Example 392], for which the half-inhibitory concentration (IC50) came to 15.8 µM.

With `CN1N(Cc2ccc(OCCn3cncn3)c(F)c2F)C(=O)C(C(=O)Nc2ccc(C(F)(F)F)cc2-c2cc(C(F)(F)F)ncn2)=C(O)C12CCC2` [Example 352], the IC50 amounted to 16.7 µM.

As to `COCCN(C)CCOc1c(I)cc(CN2C(=O)C(C(=O)Nc3ccc(C(F)(F)F)cc3-c3cc(C(F)(F)F)ncn3)=C(O)C3(CCCC3)N2C)c(F)c1F` [Example 437, 7-[[2,3-Difluoro-5-iodo-4-[2-[2-methoxyethyl(methyl)amino]ethoxy]phenyl]methyl]-10-hydroxy-6-methyl-8-oxo-N-[4-(trifluoromethyl)-2-[6-(trifluoromethyl)pyrimidin-4-yl]phenyl]-6,7-diazaspiro[4.5]dec-9-ene-9-carboxamide], the half-maximal inhibitory concentration (IC50) was determined as 19.5 µM.

For the molecule `CN1N(Cc2ccc(OCCCCCOC[C@H](O)CO)c(F)c2F)C(=O)C(C(=O)Nc2ccc(C(F)(F)F)cc2-c2cc(C(F)(F)F)ncn2)=C(O)C12CCCC2` [Example 394], the IC50 stood at 6.7 µM.

For `CN1N(Cc2ccc(NCCCN3CCOCC3)c(F)c2F)C(=O)C(C(=O)Nc2ccc(C(F)(F)F)cc2-c2cc(C(F)(F)F)ncn2)=C(O)C12CCCC2` [Example 446], the IC50 is 11.1 µM.

As for `COC[C@@H]1CCCN1CCOc1ccc(CN2C(=O)C(C(=O)Nc3ccc(C(F)(F)F)cc3-c3cc(C(F)(F)F)ncn3)=C(O)C3(CCCC3)N2C)c(F)c1F` [Example 375], the IC50 came out at 17.8 µM.
